Source: patent US11142543B2 (priority 2016, dated 2021)

Experiments:
[1] = tested on: ICR mice; experiment: Forced swimming test (FST), Example 38; format: in vivo; conditions: gavage 10 mg/Kg for 6 days, t-test
Excerpt: Forced swimming test (FST) to investigate the antidepressant activity of some compounds and some natural products of the present invention
(§1) Male ICR mice (body weight, 20±2 g) used in the experiment were purchased from the Experimental Animal Center of Shanghai Institute of Materia Medica, Chinese Academy of Sciences. They were free access to water and kept at room temperature (23 2) ° C. in natural light. All mice were randomly divided into a blank control group and a test group, with 10 mice in each group and 5 mice/cage. The experiment was started after 3 days of adaptation in the breeding environment. The mice were fasted for 12 hours before the experiment but free access to water. The specific administration method was gavage administration, and the administration dose of the administration group was 10 mg/Kg, and the blank control group was given an equal volume of 0.5% CMC-Na.
Specific procedures: The mice were continuously administered for 6 days, and tested 1 hour after the last administration. Firstly, the spontaneous activity of the mice was measured by the open field method, that is, the mice were individually placed in a cylindrical glass jar for 4 minutes, and the number of lifting arms within the last two minutes was recorded. The mice were then individually placed in a cylindrical glass jar (20 cm high and 14 cm in diameter) with a water depth of 10 cm and a water temperature of 23° C. to 25° C. After mice entered into water, a 6-minute timing was conducted, the cumulative immobility time (the criteria for determining immobility: the mice stopped struggling in the water, or floated with only small limb movements to keep the head float on the water) within the last four minutes was recorded. Each group of mice was operated in parallel.
(§2) Experimental data processing: The experimental results were expressed as mean standard error (x SD). Statistical analysis was performed using t-test to determine whether it was significant. […] Then, the t-test was performed on the experimental index of forced swimming to determine whether it had antidepressant effect.

[2] = tested on: ICR mice; experiment: Tail suspension test (TST), Example 39; format: in vivo; conditions: gavage 10 mg/Kg for 6 days, t-test
Excerpt: Tail Suspension Test (TST) to Investigate the Antidepressant Activity of Some Compounds and Some Natural Products of the Present Invention
as §1, with “dose” for “dose of the administration group”
Specific procedures: The mice were continuously administered for 6 days, and tested 1 hour after the last administration. Firstly, the spontaneous activity of the mice was measured by the open field method, that is, the mice were individually placed in a cylindrical glass jar for 4 minutes, and the number of lifting arms within the last 2 minutes was recorded. Then the tail of the mice was stick onto the horizontal bar by the tape at 2 cm from the tip of the tail, and the animal eyesight was separated by the surrounding plates. The horizontal bar was about 25 cm from the ground, so that the mouse was about 10 cm from the ground, and the timing was 6 min. The cumulative immobility time within the last 4 minutes was recorded. Each group of mice was operated in parallel.
as §2, with “tail suspension test” for “forced swimming”

[3] = tested on: mice; experiment: Forced swimming test in mouse model, compound C-11 versus fluoxetine, Example 40; format: in vivo; conditions: FIG. 1
Method: The mice were placed in a cylindrical jar 24 hours before administration to accommodate the underwater environment for 15 min. On the day of the behavioral test, animals were administered twice and administered orally 4 h and 1 h before the behavioral test. The mice were individually placed in a cylindrical glass jar, timed for 6 minutes, and the number of arm lift was recorded within the last 2 minutes. The mice were then placed in a cylindrical glass jar having 30 cm high and 20 cm in diameter. […] Water temperature was 23° C.-25° C. After the mice entered into the water, a 6-minute video was taken. […] Each group of mice was operated in parallel.

[4] = tested on: mice; experiment: Tail suspension test in mouse model, compound C-11 versus fluoxetine, Example 40; format: in vivo; conditions: FIG. 2
Method: On the day of the behavioral test, animals were dosed twice and administered orally 4 h and 1 h before the behavioral test. During the experiment, the tail of the mouse was hung on a tail suspension test stand about 15 cm away from the ground with a tape or a clip at about 1 cm away from the tail end. The mice struggled to overcome the abnormal posture, but appeared intermittent immobility after a period of activity showing disappointment state. The experimental time for each group was 6 minutes. Since most of the mice struggled actively for the first two minutes, the immobility time within the last four minutes was recorded.

[5] = tested on: rats; experiment: Forced swimming test in rat model, compound C-11 versus fluoxetine, Example 41; format: in vivo
Method: The rats were placed in a cylindrical jar 24 hours before administration to accommodate the underwater environment for 15 min. On the day of the behavioral test, animals were administered twice and administered orally 4 h and 1 h before the behavioral test. The rats were individually placed in a cylindrical glass jar, timed for 6 minutes, and the number of arm lift was recorded within the last 2 minutes. The rats were then placed in a cylindrical glass jar having 30 cm high and 20 cm in diameter. […] Water temperature was 23° C.-25° C.

[6] = tested on: rats; experiment: Tail suspension test in rat model, compound C-11 versus fluoxetine, Example 41; format: in vivo
Method: On the day of the behavioral test, animals were dosed twice and administered orally 4 h and 1 h before the behavioral test. During the experiment, the tail of the rat was hung on a tail suspension test stand about 15 cm away from the ground with a tape or a clip at about 1 cm away from the tail end. […] The experimental time for each group was 6 minutes.

[7] = tested on: C57 mice susceptible to social defeat by CD-1 aggressive mice; experiment: Social defeated stress (SDS) model, Example 42; format: in vivo; conditions: 10 mg/kg gavage every day
Method: Male CD-1 aged 4-6 months mice which had passed childbearing age were raised separately, allowed to eat freely and adapt to the environment for about one week. Male C57 mice (aged 8-20 weeks differently) were used to screen for aggressive CD-1 mice. The mice screened by C57 were placed directly in the cage of CD-1 for 3 minutes, and the latency period for CD-1 to start showing offensive was recorded, and then the mice screened by C57 were moved out. For each CD-1 mouse, the same C57 was used to screen it three times a day, and different C57-selected mice were selected every day for a total of three days of screening. […] After screening for CD-1 aggressive mice for modeling, each C57 test mouse was exposed to different CD-1 aggressive mice for 10 consecutive days, 10 minutes each day. […] After 10 minutes of contact, the test mice were isolated from the invaders. Test mice and aggressive mice were placed in adjacent sections of the same squirrel cage, separated by a porous transparent plastic baffle, allowing test mice to be exposed under a threatening chronic stress stimulation for the next 24 hours. The control mice were placed in cages having the same structure, but the other side of the baffle was placed with other mice of the same line that were replaced daily. After 24 hours after the end of the last day of the experiment, we evaluated CSDS-induced social behavioral changes and selected all susceptible mice based on previous reports. The social interaction ratio (SI ratio) was calculated according to the following formula: SI ratio=time for the mouse in the interaction area when the aggressor exists/time for the mouse in the interaction area when the aggressor is absent. […] All selected test mice and control mice were then housed individually for 3 weeks. […] The mice in the vehicle group were administered by gavage with 0.5% CMC-Na every day. The SI ratio was assessed once a week.
Two-way ANOVA was used to analyze and LSD method was used for the multiple comparisons of calibration results. The data were expressed in Mean sem. […]

[8] = tested on: ICR mice; experiment: Toxicity observed during antidepressant efficacy screening (FST and TST animal batch); format: in vivo; conditions: same animal batch as efficacy screening, gavage 10 mg/Kg
Excerpt: as §1
as §1, with “The specific administration method was gavage administration, and the administration dose of the administration group was 10 mg/Kg, and the blank control group was given an equal volume of 0.5% CMC-Na.” left out

[9] = Acta Pharmacologica Sinica 2014; 35 (9): 1188-1198; cited from earlier work
[10] = mice, oral 4 h and 1 h before the test, vs blank group
[11] = dose 3.46 mg/kg oral, vs vehicle group, FIG. 3
[12] = rats, oral 4 h and 1 h before the test, dose not given

Row | Structure (SMILES) | effect on immobility time of mice in forced swimming test compared with the blank group (in words) [1] | effect on immobility time of mouse in tail suspension test compared with the blank group (in words) [2] | effect on cumulative immobility time of mice in the forced swimming test (in words) [3, 10] | effective dose compared with fluoxetine ([3]; mouse forced swimming test) | effect on cumulative immobility time of the mouse in tail suspension test (in words) [4, 10] | effective dose compared with fluoxetine ([4]; mouse tail suspension test) | effect on immobility time of rats in forced swimming test ([5]; dose 1.73 mg/kg oral, vs vehicle group, FIG. 3) | effect on immobility time of rats in forced swimming test [5, 11] | effect on wall climbing behavior / wall climbing time of rats in forced swimming test [5, 11] | effective dose compared with fluoxetine ([5]; rat forced swimming test, FIG. 3) | effect on cumulative immobility time of rats in the forced swimming test (in words) [5, 12] | effect on cumulative immobility time of rats in tail suspension test ([6]; dose 3.46 mg/kg oral, vs vehicle group, FIG. 4) | effective dose compared with fluoxetine ([6]; rat tail suspension test, FIG. 4) | effect on immobility time of rats in tail suspension test (in words) [6, 12] | duration of oral administration that effectively alleviates depressive symptoms [7] | toxicity observed [8] | toxicity [9]
1 | C[C@H]1CC[C@@]2(OC1)O[C@H]1C[C@H]3[C@@H]4CC[C@@H]5C[C@H](NC(=O)NC6CCCCC6)CC[C@]5(C)[C@H]4CC[C@]3(C)[C@H]1[C@@H]2C [compound C-11] | extremely significant antidepressant activity | extremely significant antidepressant activity | significantly reduced the cumulative immobility time | only half of that of fluoxetine | significantly reduced the cumulative immobility time | only half of that of fluoxetine | significantly reduce the immobility time | significantly reduce the immobility time | significantly increases the wall climbing time | significantly lower than that of the positive drug fluoxetine | significantly reduced the cumulative immobility time | significantly reduce the cumulative immobility time | significantly lower than that of the positive drug fluoxetine | significantly reduced the immobility time | 1-2 weeks | No significant toxicity was observed | –
2 | C[C@H]1CC[C@@]2(OC1)O[C@H]1C[C@H]3C4CC[C@@H]5C[C@@H](O[C@@H]6OC(CO)[C@H](O)[C@H](O)C6O[C@@H]6OC(CO)[C@@H](O)[C@H](O)C6O)CC[C@]5(C)C4CC[C@]3(C)C1[C@@H]2C (stereo partly shown) [timosaponin A3, reference compound] | could not significantly reduce the immobility time | significant antidepressant activity | – | – | – | – | – | – | – | – | – | – | – | – | – | – | significant toxicity
